Measurements published in US6924302B2, “Substituted triazole diamine derivatives as kinase inhibitors” (Ortho McNeil Pharmaceutical, Inc., priority 2000, dated 2005).
Like-named read-outs stand apart in the source and are kept apart here.

Tests used:
CDK1:Cyclin-B = biological target: T1, CDK1:Cyclin-B (Homo sapiens, UniProt P06493); assay: CDK1 Screening Assay; format: biochemical; conditions: read-out: CDK1 IC50
T1 construct: purchased New England Biolabs 6020; host or cells: insect cells
Summary of the method: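 Human CDK1:cyclin-B (30 ng/well) with biotinylated histone-H1 peptide and ^33P-γ-ATP, 1 h at 30° C, 1% DMSO, on streptavidin FlashPlate; incorporation read by scintillation.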

Insulin Receptor Kinase = Insulin Receptor Kinase (Homo sapiens, UniProt P06213); assay: Kinase Selectivity Assay Insulin Receptor Kinase; format: biochemical; conditions: Kinase Selectivity, Tables 2a-2k; read-out: Insulin R Kinase IC50
Protocol: (§1) Assays to test compound inhibition of other kinases were preformed using methods that measure the amount of phosphorylation of a biotinylated peptide substrate. Biotinylated peptide substrates were selected from the literature as appropriate for the enzyme being evaluated. […] Assay conditions vary slightly for each protein kinase, for example, insulin receptor kinase requires 10 mM MnCl2 for activity and Calmodulin-dependent protein kinase requires calmodulin and 10 mM CaCl2. These assay conditions are known in the art. The reaction mixture was dispensed into the wells of a streptavidin coated Flashplate and 1 μl drug stock in 100% DMSO was added to a 100 μl reaction volume resulting in a final concentration of 1% DMSO on the reaction. Enzyme was diluted in 50 mM Tris-HCl pH=8.0, 0.1% BSA and add to each well. The reaction was incubated for one hour at 30° C. in the presence of compound. After one hour the reaction mix was aspirated from the plate and the plate was washed with PBS containing 100 mM EDTA. The plate was read on a scintillation counter to determine ^33P-γ-ATP incorporated into the immobilized peptide. Test compounds were assayed in duplicate at 8 concentrations [100 uM, 10 uM, 1 uM, 100 nM, 10 nM, 1 nM, 100 pM, 10 pM]. A maximum and minimum signal for the assay was determined on each plate. The IC50 was calculated from the dose response curve of the percent inhibition of the maximum signal in the assay according to the formula [max signal—background/test compound signal—background (100)=% inhibition] by graphing the percent inhibition against the log concentration of test compound. Known inhibitor compounds appropriate for the kinase being assayed were also included on each plate.
(§2) CDK2 in complex with cyclin A is commercially available (Upstate Biotech, Lake Placid, N.Y.). The CDK4 complex was composed of a mouse CDK4 protein and a mouse Cyclin D1 protein (The mouse CDK4 protein was genetically fused to an N-terminal Flag-epitope tag and the mouse Cyclin D1 protein was fused with an N-terminal AU-1 epitope tag. The genes encoding these proteins were transferred to commercially available baculoviral vectors. The recombinant CDK4/D1 complex was then made by co-infecting commercially available insect cells with viruses carrying these two constructs). […] ERK-1 protein (Discontinued from Calbiochem). EGFR (epidermal growth factor receptor) is purified from human A431 cell membranes (Sigma, St. Louis, Mo., Cat.# E3641).

Protein Kinase A = biological target: T2, Protein Kinase A (Bos taurus, UniProt P00517); assay: Kinase Selectivity Assay Protein Kinase A; format: biochemical, bovine; conditions: Kinase Selectivity, Tables 2a-2k; read-out: PKA IC50
T2 construct: purified from bovine heart; purchased Upstate Biotech 14-114; host or cells: bovine heart
Protocol: as §1, §2

[1] = biological target: T3, Casein Kinase 1 (CK1 delta isoform) (Rattus norvegicus, UniProt Q06486); assay: Kinase Selectivity Assay Casein Kinase 1; format: biochemical; conditions: Tables 2a-2k, read-out: Caseine Kinase 1 IC50
T3 construct: a truncation at amino acid 318 of the C-terminal portion of the rat CK1 delta isoform; purchased New England Biolabs 6030; host or cells: E. coli
T3 sequence (Q06486 1-317): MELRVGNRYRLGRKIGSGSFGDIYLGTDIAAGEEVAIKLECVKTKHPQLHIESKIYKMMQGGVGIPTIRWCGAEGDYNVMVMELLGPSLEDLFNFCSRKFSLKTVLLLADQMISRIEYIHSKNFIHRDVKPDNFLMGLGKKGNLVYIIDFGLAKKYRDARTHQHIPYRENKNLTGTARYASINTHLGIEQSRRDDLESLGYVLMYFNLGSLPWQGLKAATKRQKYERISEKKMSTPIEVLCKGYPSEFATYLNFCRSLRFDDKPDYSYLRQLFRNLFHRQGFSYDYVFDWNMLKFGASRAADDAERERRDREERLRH
Protocol: as §1, §2

[2] = biological target: T4, Casein Kinase 2 (alpha and beta subunits) (Homo sapiens, UniProt P68400); assay: Kinase Selectivity Assay Casein Kinase 2; format: biochemical; conditions: Kinase Selectivity, Tables 2a-2k; read-out: Caseine Kinase 2 IC50
T4 construct: purchased New England Biolabs 6010; host or cells: E. coli
Protocol: as §1, §2

[3] = biological target: T5, Calmodulin Kinase (calmodulin-dependent protein kinase 2) (Rattus norvegicus, UniProt P11275); assay: Kinase Selectivity Assay Calmodulin Kinase; format: biochemical; conditions: Kinase Selectivity, Tables 2a-2k; read-out: Calmodulin Kinase 2 IC50
T5 construct: a truncated version of the alpha subunit of the rat protein; purchased New England Biolabs 6060; host or cells: insect cells
Protocol: as §1, §2

[4] = biological target: T6, Glycogen Synthase Kinase-3 (beta isoform) (Oryctolagus cuniculus, UniProt G1T8E2); assay: Kinase Selectivity Assay Glycogen Synthase Kinase-3; format: biochemical, rabbit; conditions: Kinase Selectivity, Tables 2a-2k; read-out: GSK-3 IC50
T6 construct: purchased New England Biolabs 6040; host or cells: E. coli
Protocol: as §1, §2

[5] = biological target: T7, MAP Kinase (ERK-2 isoform) (Rattus norvegicus, UniProt P63086); assay: Kinase Selectivity Assay MAP Kinase (ERK-2); format: biochemical; conditions: Kinase Selectivity, Tables 2a-2k; read-out: ERK 2 IC50
T7 construct: polyhistidine (N); host or cells: E. coli
Protocol: as §1, §2

[6] = biological target: T8, PDGF-R (platelet derived growth factor receptor) beta subunit kinase domain (Homo sapiens, UniProt P09619); assay: Kinase Selectivity Assay PDGF-R; format: biochemical; conditions: Kinase Selectivity, Tables 2a-2k; read-out: PDGF-R kinase IC50
T8 construct: nucleotides 1874-3507 of the human PDGF-R beta subunit kinase domain; polyhistidine (N)
Protocol: as §1, §2

[7] = biological target: T9, HER2 (human epidermal growth factor receptor-2) (Homo sapiens, UniProt P04626); assay: Kinase Selectivity Assay HER2; format: biochemical
T9 construct: begins at amino acid 676 followed by the remainder of the HER2 cytoplasmic domain; polyhistidine (N)
Summary of the method: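 Radiometric Flashplate format: ^33P-γ-ATP transfer to immobilized biotinylated peptide, 1 h, 30° C, 1% DMSO final, enzyme in 50 mM Tris-HCl pH=8.0 + 0.1% BSA. Duplicate 8-point dilution, 100 uM down to 10 pM. IC50 from % inhibition of plate max signal versus log conc.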

FGF-R2 = FGF-R2 (Homo sapiens, UniProt P21802); assay: Kinase Selectivity Assay FGF-R2; format: biochemical; conditions: Tables 2a-2k
Protocol: as §1

[8] = biological target: T10, CDK2 in complex with cyclin A (Homo sapiens, UniProt P24941); assay: Kinase Selectivity Assay CDK2; format: biochemical; conditions: Table 1
T10 construct: purchased Upstate Biotech
Protocol: as §1, §2

[9] = tested on: HeLa cervical adenocarcinoma; assay: Inhibition of Cell Proliferation (14C-thymidine incorporation), HeLa; format: cell-based; conditions: Homo sapiens, HeLa cell line
Protocol: (§3) The ability of a test compound to inhibit the proliferation of cell growth was determined by measuring incorporation of ^14C-labelled thymidine into newly synthesized DNA within the cells. This method was used on cell lines derived from carcinomas originating from several tissues such as HeLa cervical adenocarcinoma (American Type Culture Collection (ATCC), Virginia, Cat. #CCL-2), A375 malignant melanoma (ATCC CRL-1619), SK-OV-3 ovarian adenocarcinoma (ATCC HTB-77) HCT-116 colon carcinoma (CCL-247), PC-3 prostate adenocarcinoma (ATCC CRL-1435), and MDA-MB-231 (Xenogen Corp.) In this way the effect of a compound on cell growth of cells with many different phenotypes can be determined. Cells were trypsinized and counted and 3000-8000 cells were added to each well of a 96-well CytoStar tissue culture treated scintillating microplate (Amersham #RPNQ0160) in complete medium in a volume of 100 μl. Cells were incubated for 24 hours in complete medium at 37° C. in an atmosphere containing 5% CO2. Next, 1 μl of test compound in 100% DMSO was added to the wells of the plate. DMSO only was added to control wells. Cells were incubated for 24 more hours in complete medium at 37° C. in an atmosphere containing 5% CO2. Methyl ^14C-thymidine 56 mCi/mmol (NEN #NEC568 or Amersham #CFA532) was diluted in complete medium and 0.2 uCi/well was added to each well of the CytoStar plate in a volume of 20 μl. The plate was incubated for 24 hours at 37° C. plus 5% CO2 in drug plus ^14C-thymidine. The contents of the plate were discarded into a ^14C radioactive waste container by inverting the plate and the plate was washed twice with 200 μl PBS. 200 μl of PBS is added to each well. The top of the plate was sealed with a transparent plate sealer and a white plate backing sealer (Packard #6005199) was applied to the bottom of the plate. The degree of methyl ^14C-thymidine incorporation was quantified on a Packard Top Count.

A375 malignant melanoma = assay: Inhibition of Cell Proliferation (14C-thymidine incorporation), A375; format: cell-based; conditions: Homo sapiens, A-375, A375 cell line
Protocol: as §3

HCT-116 colon carcinoma = assay: Inhibition of Cell Proliferation (14C-thymidine incorporation), HCT-116; format: cell-based; conditions: Homo sapiens, HCT-116 cell line
Protocol: as §3

Sequence of FGF-R2 (P21802 22-821, species assumed): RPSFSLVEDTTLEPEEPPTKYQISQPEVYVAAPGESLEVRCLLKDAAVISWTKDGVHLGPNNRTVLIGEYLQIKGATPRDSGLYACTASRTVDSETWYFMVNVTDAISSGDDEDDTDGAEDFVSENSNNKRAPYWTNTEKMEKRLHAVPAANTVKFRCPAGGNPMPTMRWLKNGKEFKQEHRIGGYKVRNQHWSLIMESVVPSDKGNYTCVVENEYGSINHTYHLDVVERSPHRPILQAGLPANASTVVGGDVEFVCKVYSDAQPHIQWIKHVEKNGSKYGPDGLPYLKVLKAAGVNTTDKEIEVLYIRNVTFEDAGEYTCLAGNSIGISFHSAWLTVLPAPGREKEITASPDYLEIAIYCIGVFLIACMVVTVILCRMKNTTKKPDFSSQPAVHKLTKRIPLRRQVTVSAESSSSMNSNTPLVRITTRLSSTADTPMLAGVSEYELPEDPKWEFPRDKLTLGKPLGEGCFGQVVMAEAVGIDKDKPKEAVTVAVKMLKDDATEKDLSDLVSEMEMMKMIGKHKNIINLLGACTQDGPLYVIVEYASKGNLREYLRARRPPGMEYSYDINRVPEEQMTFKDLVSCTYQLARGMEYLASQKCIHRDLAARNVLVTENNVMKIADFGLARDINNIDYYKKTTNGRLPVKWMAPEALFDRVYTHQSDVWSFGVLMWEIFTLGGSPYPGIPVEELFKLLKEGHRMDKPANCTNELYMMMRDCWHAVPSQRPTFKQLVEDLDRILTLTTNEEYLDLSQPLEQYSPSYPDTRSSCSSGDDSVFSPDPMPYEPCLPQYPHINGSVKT
T6 sequence (G1T8E2 1-432): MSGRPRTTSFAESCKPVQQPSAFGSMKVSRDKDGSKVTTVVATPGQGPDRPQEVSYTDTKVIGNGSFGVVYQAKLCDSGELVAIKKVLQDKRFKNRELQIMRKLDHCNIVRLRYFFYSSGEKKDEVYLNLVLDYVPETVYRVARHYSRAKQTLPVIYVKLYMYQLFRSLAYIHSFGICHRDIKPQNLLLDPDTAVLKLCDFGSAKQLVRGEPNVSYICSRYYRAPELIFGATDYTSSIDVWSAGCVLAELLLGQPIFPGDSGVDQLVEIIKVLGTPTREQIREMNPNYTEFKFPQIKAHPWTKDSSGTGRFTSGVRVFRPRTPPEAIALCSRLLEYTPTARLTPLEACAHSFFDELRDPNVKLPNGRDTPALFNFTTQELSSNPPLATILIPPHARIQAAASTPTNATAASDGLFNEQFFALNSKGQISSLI
T7 sequence (P63086 whole entry, canonical isoform): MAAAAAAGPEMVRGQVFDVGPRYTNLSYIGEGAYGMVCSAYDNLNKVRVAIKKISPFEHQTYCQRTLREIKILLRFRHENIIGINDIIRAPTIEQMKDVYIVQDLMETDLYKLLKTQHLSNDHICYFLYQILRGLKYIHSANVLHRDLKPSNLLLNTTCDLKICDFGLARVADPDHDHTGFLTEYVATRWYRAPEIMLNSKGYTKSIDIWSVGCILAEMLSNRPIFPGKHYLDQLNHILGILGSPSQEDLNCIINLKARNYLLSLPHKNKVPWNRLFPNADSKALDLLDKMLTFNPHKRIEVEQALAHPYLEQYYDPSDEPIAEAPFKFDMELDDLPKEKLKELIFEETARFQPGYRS
T8 sequence (P09619 564-1106): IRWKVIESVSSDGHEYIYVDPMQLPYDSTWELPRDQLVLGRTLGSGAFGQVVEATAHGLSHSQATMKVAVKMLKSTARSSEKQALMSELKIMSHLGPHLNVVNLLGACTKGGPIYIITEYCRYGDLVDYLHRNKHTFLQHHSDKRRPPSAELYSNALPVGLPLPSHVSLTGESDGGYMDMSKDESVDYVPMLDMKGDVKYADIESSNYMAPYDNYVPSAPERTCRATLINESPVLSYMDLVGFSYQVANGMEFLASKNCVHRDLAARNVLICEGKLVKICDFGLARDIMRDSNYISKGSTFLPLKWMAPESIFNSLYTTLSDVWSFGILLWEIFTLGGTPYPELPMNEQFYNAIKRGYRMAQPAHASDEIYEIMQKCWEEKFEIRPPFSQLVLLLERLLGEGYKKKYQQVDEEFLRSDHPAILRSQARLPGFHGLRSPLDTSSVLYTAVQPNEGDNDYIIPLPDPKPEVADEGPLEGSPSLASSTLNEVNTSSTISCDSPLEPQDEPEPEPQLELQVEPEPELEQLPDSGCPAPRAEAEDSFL
T4 sequence (P68400 whole entry): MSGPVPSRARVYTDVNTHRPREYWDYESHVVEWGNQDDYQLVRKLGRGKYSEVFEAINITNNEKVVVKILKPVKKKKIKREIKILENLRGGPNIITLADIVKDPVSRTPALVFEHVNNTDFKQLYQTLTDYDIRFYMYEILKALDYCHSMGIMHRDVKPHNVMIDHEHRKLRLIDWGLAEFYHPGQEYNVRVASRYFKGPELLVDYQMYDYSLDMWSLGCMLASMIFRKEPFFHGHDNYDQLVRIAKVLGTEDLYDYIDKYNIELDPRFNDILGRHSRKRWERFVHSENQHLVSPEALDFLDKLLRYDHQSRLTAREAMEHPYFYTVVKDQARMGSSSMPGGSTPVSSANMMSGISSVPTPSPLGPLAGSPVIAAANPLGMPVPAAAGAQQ
T4 sequence (P67870 whole entry partner): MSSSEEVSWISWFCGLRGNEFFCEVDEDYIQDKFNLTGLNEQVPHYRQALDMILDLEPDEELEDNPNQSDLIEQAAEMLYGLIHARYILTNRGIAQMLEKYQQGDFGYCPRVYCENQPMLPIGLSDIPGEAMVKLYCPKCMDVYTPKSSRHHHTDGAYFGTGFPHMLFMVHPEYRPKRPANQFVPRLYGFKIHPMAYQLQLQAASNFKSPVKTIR
Sequence of Insulin Receptor Kinase (P06213 980-1352): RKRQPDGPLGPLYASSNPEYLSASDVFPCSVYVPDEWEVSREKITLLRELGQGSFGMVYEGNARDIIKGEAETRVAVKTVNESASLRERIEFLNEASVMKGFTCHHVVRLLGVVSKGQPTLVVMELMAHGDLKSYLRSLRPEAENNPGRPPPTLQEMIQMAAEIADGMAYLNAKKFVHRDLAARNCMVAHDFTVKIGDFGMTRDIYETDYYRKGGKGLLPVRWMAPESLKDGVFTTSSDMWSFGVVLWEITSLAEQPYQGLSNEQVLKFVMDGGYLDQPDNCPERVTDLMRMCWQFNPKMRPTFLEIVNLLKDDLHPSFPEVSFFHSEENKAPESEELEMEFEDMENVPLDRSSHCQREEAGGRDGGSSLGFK
T9 sequence (P04626 676-1255 limits assumed): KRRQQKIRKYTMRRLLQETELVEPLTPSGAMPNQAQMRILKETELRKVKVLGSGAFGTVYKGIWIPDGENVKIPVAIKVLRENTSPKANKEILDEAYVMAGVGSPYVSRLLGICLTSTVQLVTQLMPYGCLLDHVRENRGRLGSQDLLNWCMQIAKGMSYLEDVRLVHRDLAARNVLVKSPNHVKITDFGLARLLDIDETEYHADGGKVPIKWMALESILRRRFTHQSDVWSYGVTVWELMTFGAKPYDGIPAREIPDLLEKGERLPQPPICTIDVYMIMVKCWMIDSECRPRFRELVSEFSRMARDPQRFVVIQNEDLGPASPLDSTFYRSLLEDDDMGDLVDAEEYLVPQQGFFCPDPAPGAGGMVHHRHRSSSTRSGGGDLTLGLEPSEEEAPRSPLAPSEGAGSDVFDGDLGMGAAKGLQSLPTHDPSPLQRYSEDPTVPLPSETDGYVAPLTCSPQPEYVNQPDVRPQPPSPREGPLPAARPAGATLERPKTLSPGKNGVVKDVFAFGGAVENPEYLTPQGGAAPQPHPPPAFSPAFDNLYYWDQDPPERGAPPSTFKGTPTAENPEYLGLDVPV
T1 sequence (P06493 whole entry): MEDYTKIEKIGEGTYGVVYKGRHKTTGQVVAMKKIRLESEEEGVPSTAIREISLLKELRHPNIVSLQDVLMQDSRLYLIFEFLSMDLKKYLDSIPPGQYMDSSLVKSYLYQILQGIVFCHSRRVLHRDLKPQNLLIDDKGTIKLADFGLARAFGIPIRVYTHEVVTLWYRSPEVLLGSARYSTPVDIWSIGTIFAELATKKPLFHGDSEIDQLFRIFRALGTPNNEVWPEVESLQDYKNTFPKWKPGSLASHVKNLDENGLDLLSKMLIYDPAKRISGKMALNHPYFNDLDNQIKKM
T1 sequence (P14635 whole entry partner): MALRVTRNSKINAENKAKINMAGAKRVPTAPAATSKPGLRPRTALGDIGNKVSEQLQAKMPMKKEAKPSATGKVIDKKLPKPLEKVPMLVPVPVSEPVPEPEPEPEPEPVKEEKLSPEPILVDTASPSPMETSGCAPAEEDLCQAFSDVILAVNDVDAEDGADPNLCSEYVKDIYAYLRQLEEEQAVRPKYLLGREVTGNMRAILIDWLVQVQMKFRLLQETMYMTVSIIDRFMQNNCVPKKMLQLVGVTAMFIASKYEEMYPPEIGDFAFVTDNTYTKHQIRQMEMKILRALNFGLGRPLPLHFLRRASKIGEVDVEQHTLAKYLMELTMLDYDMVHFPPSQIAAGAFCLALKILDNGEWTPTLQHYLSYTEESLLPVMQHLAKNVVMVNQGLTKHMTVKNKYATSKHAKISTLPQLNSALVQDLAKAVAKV

Compound	IC50 (CDK1:Cyclin-B; Kinase Selectivity, Tables 2a-2k)	IC50 (CDK1:Cyclin-B; Table 1)	IC50 (Insulin Receptor Kinase)	IC50 (Protein Kinase A)	IC50 [1]	IC50 [2]	IC50 [3]	IC50 [4]	IC50 [5]	IC50 [6]	IC50 ([7]; Kinase Selectivity, Tables 2a-2k, read-out: HER2 Kinase IC50)	IC50 ([7]; Table 1, read-out: HER2 IC50)	IC50 (FGF-R2)	IC50 [8]	IC50 [9]	IC50 (A375 malignant melanoma)	IC50 (HCT-116 colon carcinoma)
Nc1ccc(F)c(C(=O)n2nc(Nc3ccc(S(N)(=O)=O)cc3)nc2N)c1F [Cpd 55, 4-[[5-amino-1-(3-amino-2,6-difluorobenzoyl)-1H-1,2,4-triazol-3-yl]amino]-benzenesulfonamide]	20 nM	22 nM	> 100000 nM	> 100000 nM	9600 nM	> 100000 nM	> 100000 nM	40 nM	12900 nM	16200 nM	2190 nM	2190 nM	478 nM				
Cc1ccc(F)c(C(=O)n2nc(Nc3ccc(S(=O)(=O)NCCN(C)C)cc3)nc2N)c1F [Cpd 105]			9850 nM	> 100000 nM	4490 nM	> 100000 nM	> 100000 nM	82 nM	18200 nM	2200 nM			142 nM	2 nM	626 nM	652 nM	320 nM
Cc1cc(C)c(C(=O)n2nc(Nc3ccc(S(=O)(=O)NCCN(C)C)cc3)nc2N)s1 [Cpd 107]			311 nM	> 100000 nM	412 nM	> 10000 nM	3430 nM	15 nM	> 10000 nM	143 nM			235 nM	2 nM	177 nM	113 nM	95 nM
Cc1ccc(F)c(C(=O)n2nc(Nc3ccc(N4CCNC4=O)cc3)nc2N)c1F [Cpd 114, 1-[4-[[5-amino-1-(2,6-difluoro-3-methylbenzoyl)-1H-1,2,4-triazol-3-yl]amino]phenyl]-2-imidazolidinone]			> 100000 nM	> 100000 nM	2000 nM	> 100000 nM	> 100000 nM	431 nM	15800 nM	13800 nM					2530 nM	1690 nM	1380 nM
Nc1nc(Nc2ccc(N3CCNC3=O)cc2)nn1C(=O)c1c(F)cccc1F [Cpd 115, 1-[4-[[5-amino-1-(2,6-difluorobenzoyl)-1H-1,2,4-triazol-3-yl]amino]phenyl]-2-imidazolidinone]			> 10000 nM	> 100000 nM	9980 nM	> 100000 nM	> 100000 nM	391 nM	> 10000 nM	> 10000 nM					676 nM	529 nM	486 nM
Cc1ccsc1C(=O)n1nc(Nc2ccc(S(=O)(=O)Nc3ccccn3)cc2)nc1N [Cpd 121]			> 100000 nM	> 100000 nM	> 10000 nM	> 100000 nM	> 100000 nM	29 nM	> 100000 nM	394 nM				3 nM	310 nM	215 nM	608 nM
